Source: ChEMBL document CHEMBL3994622, “Design and synthesis of new RAF kinase-inhibiting antiproliferative quinoline derivatives. Part 2: Diarylurea derivatives” (Eur J Med Chem, 2017)

Key:
Assay type in all cases: functional
K562 = experiment: Growth inhibition of human K562 cells incubated for 48 hrs by sulforhodamine B assay; conditions: K562, 48 h
MOLT-4 = experiment: Growth inhibition of human MOLT4 cells incubated for 48 hrs by sulforhodamine B assay; conditions: MOLT-4, 48 h
RPMI-8226 = experiment: Growth inhibition of human RPMI8226 cells incubated for 48 hrs by sulforhodamine B assay; conditions: RPMI-8226, 48 h
SR = experiment: Growth inhibition of human SR cells incubated for 48 hrs by sulforhodamine B assay
HOP-92 = experiment: Growth inhibition of human HOP92 cells incubated for 48 hrs by sulforhodamine B assay; conditions: HOP-92, 48 h
NCI-H460 = experiment: Growth inhibition of human NCI-H460 cells incubated for 48 hrs by sulforhodamine B assay; conditions: NCI-H460, 48 h
COLO 205 = experiment: Growth inhibition of human COLO205 cells incubated for 48 hrs by sulforhodamine B assay; conditions: COLO 205, 48 h
KM12 = experiment: Growth inhibition of human KM12 cells incubated for 48 hrs by sulforhodamine B assay; conditions: KM12, 48 h
SF-268 = experiment: Growth inhibition of human SF268 cells incubated for 48 hrs by sulforhodamine B assay; conditions: SF-268, 48 h
SF-295 = experiment: Growth inhibition of human SF295 cells incubated for 48 hrs by sulforhodamine B assay; conditions: SF-295, 48 h
SF-539 = experiment: Growth inhibition of human SF539 cells incubated for 48 hrs by sulforhodamine B assay; conditions: SF-539, 48 h
SNB-19 = experiment: Growth inhibition of human SNB19 cells incubated for 48 hrs by sulforhodamine B assay; conditions: SNB-19, 48 h
SNB-75 = experiment: Growth inhibition of human SNB75 cells incubated for 48 hrs by sulforhodamine B assay; conditions: SNB-75, 48 h
U-251 = experiment: Growth inhibition of human U251 cells incubated for 48 hrs by sulforhodamine B assay; conditions: U-251, 48 h
Malme-3M = experiment: Growth inhibition of human MALME-3M cells incubated for 48 hrs by sulforhodamine B assay
MDA-MB-435 = experiment: Growth inhibition of human MDA-MB-435 cells incubated for 48 hrs by sulforhodamine B assay; conditions: MDA-MB-435, 48 h
UACC-62 = experiment: Growth inhibition of human UACC62 cells incubated for 48 hrs by sulforhodamine B assay; conditions: UACC-62, 48 h
IGROV-1 = experiment: Growth inhibition of human IGROV1 cells incubated for 48 hrs by sulforhodamine B assay; conditions: IGROV-1, 48 h
OVCAR-5 = experiment: Growth inhibition of human OVCAR5 cells incubated for 48 hrs by sulforhodamine B assay; conditions: OVCAR-5, 48 h
OVCAR-8 = experiment: Growth inhibition of human OVCAR8 cells incubated for 48 hrs by sulforhodamine B assay; conditions: OVCAR-8, 48 h
NCI/ADR-RES = experiment: Growth inhibition of human NCI/ADR-RES cells incubated for 48 hrs by sulforhodamine B assay
SK-OV-3 = experiment: Growth inhibition of human SKOV3 cells incubated for 48 hrs by sulforhodamine B assay; conditions: SK-OV-3, 48 h
ACHN = experiment: Growth inhibition of human ACHN cells incubated for 48 hrs by sulforhodamine B assay
CAKI-1 = experiment: Growth inhibition of human Caki1 cells incubated for 48 hrs by sulforhodamine B assay; conditions: CAKI-1, 48 h
RXF 393 = experiment: Growth inhibition of human RXF393 cells incubated for 48 hrs by sulforhodamine B assay; conditions: RXF 393, 48 h
SN12C = experiment: Growth inhibition of human SN12C cells incubated for 48 hrs by sulforhodamine B assay
TK-10 = experiment: Growth inhibition of human TK10 cells incubated for 48 hrs by sulforhodamine B assay; conditions: TK-10, 48 h
MCF7 = experiment: Growth inhibition of human MCF7 cells incubated for 48 hrs by sulforhodamine B assay; conditions: MCF7, 48 h
MDA-MB-231 = experiment: Growth inhibition of human MDA-MB-231 cells incubated for 48 hrs by sulforhodamine B assay; conditions: MDA-MB-231, 48 h
BT-549 = experiment: Growth inhibition of human BT549 cells incubated for 48 hrs by sulforhodamine B assay; conditions: BT-549, 48 h
[1] = read-out: LC50 (the source's name)

Cc1nc2cc(O)c(O)cc2cc1Oc1ccc(NC(=O)Nc2ccc(Cl)c(Cl)c2)cc1
GI50 (K562): 6.93 µM
LC50 (concentration killing 50% of cells) (K562): > 32.5 µM
TGI (K562): 29.6 µM
GI50 (MOLT-4): 8.87 µM
LC50 (MOLT-4): > 32.5 µM
TGI (MOLT-4): > 32.5 µM
GI50 (RPMI-8226): 7.62 µM
LC50 (lethal concentration, 50% cell kill) (RPMI-8226): > 32.5 µM
TGI (RPMI-8226): 20.7 µM
GI50 (SR): 1560 nM
TGI (SR): 12.3 µM
CC50 (SR; [1]): > 32.5 µM
GI50 (HOP-92): 2850 nM
LC50 (HOP-92): > 32.5 µM
TGI (HOP-92): 16.7 µM
GI50 (NCI-H460): 6.95 µM
TGI (NCI-H460): 15.8 µM
CC50 (NCI-H460; [1]): > 32.5 µM
GI50 (COLO 205): 10.3 µM
TGI (COLO 205): > 32.5 µM
CC50 (COLO 205; [1]): > 32.5 µM
GI50 (KM12): 9.64 µM
TGI (KM12): 32 µM
CC50 (KM12; [1]): > 32.5 µM
GI50 (SF-268): 8.45 µM
LC50 (50% lethal concentration) (SF-268): > 32.5 µM
TGI (SF-268): > 32.5 µM
GI50 (SF-295): 11.4 µM
TGI (SF-295): > 32.5 µM
CC50 (SF-295; [1]): > 32.5 µM
GI50 (SF-539): 8.86 µM
TGI (SF-539): 22.7 µM
CC50 (SF-539; [1]): > 32.5 µM
GI50 (SNB-19): 10.1 µM
TGI (SNB-19): > 32.5 µM
CC50 (SNB-19; [1]): > 32.5 µM
GI50 (SNB-75): 7.73 µM
TGI (SNB-75): 28.9 µM
CC50 (SNB-75; [1]): > 32.5 µM
GI50 (U-251): 6.58 µM
TGI (U-251): > 32.5 µM
CC50 (U-251; [1]): > 32.5 µM
GI50 (Malme-3M): 8.6 µM
TGI (Malme-3M): 26 µM
CC50 (Malme-3M; [1]): > 32.5 µM
GI50 (MDA-MB-435): 6.99 µM
TGI (MDA-MB-435): > 32.5 µM
CC50 (MDA-MB-435; [1]): > 32.5 µM
GI50 (UACC-62): 5.67 µM
TGI (UACC-62): 11.2 µM
CC50 (UACC-62; [1]): 22.1 µM
GI50 (IGROV-1): 12.3 µM
TGI (IGROV-1): > 32.5 µM
CC50 (IGROV-1; [1]): > 32.5 µM
GI50 (OVCAR-5): 11.6 µM
TGI (OVCAR-5): 29.3 µM
CC50 (OVCAR-5; [1]): > 32.5 µM
GI50 (OVCAR-8): 5.77 µM
TGI (OVCAR-8): > 32.5 µM
CC50 (OVCAR-8; [1]): > 32.5 µM
GI50 (NCI/ADR-RES): 8.74 µM
TGI (NCI/ADR-RES): > 32.5 µM
CC50 (NCI/ADR-RES; [1]): > 32.5 µM
GI50 (SK-OV-3): 11.7 µM
TGI (SK-OV-3): > 32.5 µM
CC50 (SK-OV-3; [1]): > 32.5 µM
GI50 (ACHN): 3.37 µM
TGI (ACHN): 17.9 µM
CC50 (ACHN; [1]): > 32.5 µM
GI50 (CAKI-1): 4.96 µM
TGI (CAKI-1): 30 µM
CC50 (CAKI-1; [1]): > 32.5 µM
GI50 (RXF 393): 9.24 µM
TGI (RXF 393): > 32.5 µM
CC50 (RXF 393; [1]): > 32.5 µM
GI50 (SN12C): 8.97 µM
TGI (SN12C): 30.3 µM
CC50 (SN12C; [1]): > 32.5 µM
GI50 (TK-10): 14.2 µM
TGI (TK-10): > 32.5 µM
CC50 (TK-10; [1]): > 32.5 µM
GI50 (MCF7): 8.7 µM
TGI (MCF7): > 32.5 µM
CC50 (MCF7; [1]): > 32.5 µM
GI50 (MDA-MB-231): 2490 nM
TGI (MDA-MB-231): > 32.5 µM
CC50 (MDA-MB-231; [1]): > 32.5 µM
GI50 (BT-549): 7.5 µM
TGI (BT-549): > 32.5 µM
CC50 (BT-549; [1]): > 32.5 µM
